Consider three molecules from US12239620B2, “Methods to decrease triglyceride synthesis in the liver” (MediciNova, Inc., priority 2021, dated 2025).

What all share (assay type): cell-based, human
In one test the test system is HepG2 cells. In words: Intracellular triglyceride level in HepG2 cells after 48 hours incubation. The following applies: for increase in TG synthesis compared to vehicle: 10 μM ARA, 1 μM T1317. As for the experimental part: FIG. 1 depicts the measurement of intracellular triglyceride level in HepG2 cells after 48 hours incubation with one or more selected from arachidonic acid, T0901317, and MN-001. Y-axis: Δ intracellular triglycerides (μg/mg/protein). HepG2 cells (derived from human hepatocellular carcinoma samples) were incubated with one or more selected from 10 μM arachidonic acid (ARA), 1 μM LXR agonist T0901317 (“T1317”), and 10 μM MN-001 for 48 hours. T1317 stimulates LXR-SREBP-1c ChREPB signal, increases triglyceride (TG) synthesis in liver and exacerbates fatty liver. The intracellular triglyceride level was measured after the treatment (FIG. 1).

The test system of the next test is CD36. Put plainly: CD36 mRNA expression in HepG2 cells by qPCR. The following applies: 48 hours. The source says: FIG. 2 depicts the measurement of CD36 mRNA expression levels from HepG2 cells after treatment with one or more selected from arachidonic acid, T0901317, and MN-001. Y-axis: relative mRNA expression (arbitrary units) compared to a control.
(§1) The effect of MN-001 on the mRNA expression of molecules related to TG metabolism: (1) fatty acid translocase/CD36, which is involved in the uptake of ARA into hepatocytes in the liver, and (2) ABCG1, which plays a role in controlling tissue lipid levels by mediating transfer of cellular cholesterol to HDL, were also investigated by measuring extracted RNA from HepG2 cells and using real-time PCR. To this end, RNA was extracted from HepG2 cells (after treatment with one or more selected from 10 μM arachidonic acid (ARA), 1 μM T1317, and 10 μM MN-001 for 48 hours) and converted to cDNA.
After conversion to cDNA, the CD36 mRNA expression levels were measured by qPCR (FIG. 2). […] Saturated fatty acids (e.g., palmitic acid, stearic acid) and fructose induce adipogenic pathways and promote fat accumulation by increasing CD36 expression and modulating ChREBP, which regulates lipogenesis.
(In qPCR the cycle at which signal appears reflects the starting amount.)

The test system of a further test is ABCG1. Put plainly: ABCG1 mRNA expression in HepG2 cells by qPCR. The following applies: 48 hours, 10 μM MN-001, 10 μM ARA.
Description: FIG. 3 depicts the measurement of ABCG1 mRNA expression levels from HepG2 cells after treatment with one or more selected from arachidonic acid, T0901317, and MN-001. Y-axis: relative mRNA expression (arbitrary units) compared to a control.
as §1
In addition, the ABCG1 mRNA expression levels were also measured by qPCR (FIG. 3). ABCG1 is known to be highly expressed in lipid-loaded macrophages and mediates cholesterol efflux to HDL. ABCG1 deficiency leads to profound intracellular cholesterol accumulation in macrophages and hepatocytes.

Setting [1] is: 10 μM MN-001 added to 10 μM ARA.

As for `O=S(=O)(c1ccccc1)N(CC(F)(F)F)c1ccc(C(O)(C(F)(F)F)C(F)(F)F)cc1` [T1317, reference compound], the “increase in TG synthesis compared to vehicle” value with HepG2 cells is listed as 3.8 fold.
For the molecule `CCCc1c(SCCCOc2ccc(C(C)=O)c(OCCCC(=O)O)c2CCC)ccc(C(C)=O)c1O` [MN-001], the “lowering of CD36 expression” value in the test on CD36 (10 μM MN-001, in the absence of ARA) is 39%; in the test with CD36 (10 μM MN-001, in the presence of ARA (10 μM)), 43%. Moreover, the “suppression of CD36 expression compared to ARA alone” value in the test on CD36 (setting [1]) amounted to 0.6 fold. Further, in the test with CD36 (10 μM MN-001 alone), the “downregulation of CD36 expression compared to control” value is 0.6 fold. Moreover, the “upregulation of ABCG1 expression compared to control” value with ABCG1 is 17 fold. In the test on HepG2 cells (10 μM MN-001 added to 1 μM T1317), the “suppression of the increase in TG synthesis by T1317” value was 1.7 fold. Also, the “suppression of the increase in TG synthesis by a combination of T1317 and ARA” value with HepG2 cells (10 μM MN-001 added to 1 μM T1317 and 10 μM ARA) was determined as 3.7 fold. Also, in the test on HepG2 cells (setting [1]), the “suppression of the increase in TG synthesis by ARA” value came to 3.7 fold.
As for `CCCCC/C=C\C/C=C\C/C=C\C/C=C\CCCC(=O)O` [ARA, arachidonic acid, reference compound], in the test on CD36 (10 μM ARA), the “increase of CD36 expression compared to control” value was determined as 1.8 fold. In addition, in the test with HepG2 cells, the “increase in TG synthesis compared to vehicle” value is given as 15.3 fold.
